Data reported in ChEMBL document CHEMBL1201862, “PubChem BioAssay data set” (2004).
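Compound exposure: 48 hours, 5 concentrations, 96-well plates. At the GI50, growth is halved.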 Activity calls are given as the source filed them. Rule as the data show it: active = GI50 up to about 1.1 µM and inactive = higher.

Experiments:
Assay in all cases: NCI anticancer screen, dose series, 48 h
[1] = tested on: DU-145
[2] = tested on: TK-10
[3] = tested on: RXF 393
[4] = tested on: BT-549
[5] = tested on: PC-3
[6] = tested on: SK-MEL-2
[7] = tested on: NCI-H522
[8] = tested on: COLO 205
[9] = tested on: 786-0
[10] = tested on: HCT-116
[11] = tested on: SF-268
[12] = tested on: UO-31
[13] = tested on: NCI-H23
[14] = tested on: SNB-19
[15] = tested on: UACC-62
[16] = tested on: SNB-75
[17] = tested on: UACC-257
[18] = tested on: HCT-15
[19] = tested on: EKVX
[20] = tested on: MDA-MB-435
[21] = tested on: RPMI-8226
[22] = tested on: SN12C
[23] = tested on: OVCAR-5
[24] = tested on: SW-620
[25] = tested on: CCRF-CEM
[26] = tested on: T47D
[27] = tested on: LOX IMVI
[28] = tested on: HOP-62
[29] = tested on: SK-MEL-5
[30] = tested on: NCI/ADR-RES
[31] = tested on: SF-539
[32] = tested on: NCI-H460
[33] = tested on: K562
[34] = tested on: HT-29
[35] = tested on: Malme-3M
[36] = tested on: SK-MEL-28
[37] = tested on: CAKI-1
[38] = tested on: A549
[39] = tested on: HOP-92
[40] = tested on: MDA-MB-231
[41] = tested on: U-251
[42] = tested on: HL-60
[43] = tested on: OVCAR-3
[44] = tested on: SK-OV-3
[45] = tested on: MOLT-4
[46] = tested on: A498
[47] = tested on: OVCAR-8
[48] = tested on: KM12
[49] = tested on: OVCAR-4
[50] = tested on: MDA-N
[51] = tested on: SF-295
[52] = tested on: ACHN
[53] = tested on: M14
[54] = tested on: NCI-H226
[55] = tested on: HCC 2998
[56] = tested on: SR
[57] = tested on: IGROV-1
[58] = tested on: MCF7
[59] = tested on: Hs-578T

In the case of `O=C1CC(c2ccc[nH]2)=NN1c1ccccc1`, the GI50 [1] is reported as > 100 µM (inactive), the GI50 [2] is reported as > 100 µM (inactive) and the GI50 [3] is reported as > 100 µM (inactive). For the same compound, the GI50 [4] was > 100 µM (inactive), the GI50 [5] was > 100 µM (inactive) and the GI50 [6] was > 100 µM (inactive). The GI50 [7] was > 100 µM (inactive), the GI50 [8] was > 100 µM (inactive) and the GI50 [9] was > 100 µM (inactive). For the same compound, the GI50 [10] was > 100 µM (inactive), the GI50 [11] was > 100 µM (inactive) and the GI50 [12] was > 100 µM (inactive). The GI50 [13] was > 100 µM (inactive), the GI50 [14] was > 100 µM (inactive) and the GI50 [15] was > 100 µM (inactive). The GI50 [16] was > 100 µM (inactive), the GI50 [17] was > 100 µM (inactive) and the GI50 [18] was greater than 100 µM. The GI50 [19] was > 100 µM (inactive), the GI50 [20] was > 100 µM (inactive) and the GI50 [21] was > 100 µM (inactive). The GI50 [22] was > 100 µM (inactive), the GI50 [23] was > 100 µM (inactive) and the GI50 [24] was > 100 µM (inactive). The GI50 [25] was 88.5 µM (inactive), the GI50 [26] was > 100 µM (inactive) and the GI50 [27] was > 100 µM (inactive). For the same compound, the GI50 [28] was > 100 µM (inactive), the GI50 [29] was > 100 µM (inactive) and the GI50 [30] was > 100 µM (inactive). The GI50 [31] was > 100 µM (inactive), the GI50 [32] was > 100 µM (inactive) and the GI50 [33] was 73.5 µM (inactive). The GI50 [34] was > 100 µM (inactive), the GI50 [35] was > 100 µM (inactive) and the GI50 [36] was > 100 µM (inactive). For the same compound, the GI50 [37] was > 100 µM (inactive), the GI50 [38] was > 100 µM (inactive) and the GI50 [39] was > 100 µM (inactive). For the same compound, the GI50 [40] was > 100 µM (inactive), the GI50 [41] was > 100 µM (inactive) and the GI50 [42] was > 100 µM (inactive). The GI50 [43] was > 100 µM (inactive), the GI50 [44] was > 100 µM (inactive) and the GI50 [45] was 27.8 µM (inactive). For the same compound, the GI50 [46] was > 100 µM (inactive), the GI50 [47] was > 100 µM (inactive) and the GI50 [48] was > 100 µM (inactive). The GI50 [49] was > 100 µM (inactive), the GI50 [50] was > 100 µM (inactive) and the GI50 [51] was > 100 µM (inactive). For the same compound, the GI50 [52] was > 100 µM (inactive), the GI50 [53] was > 100 µM (inactive) and the GI50 [54] was > 100 µM (inactive).

With `Cc1cccc2c(NCCN(C)C)c3cccc(C(=O)NCCN(C)C)c3nc12` the GI50 [1] was 0.471 µM (active), the GI50 [2] was 0.445 µM (active) and the GI50 [3] was 0.475 µM (active). The GI50 [55] was < 0.0455 µM (active), the GI50 [56] was 0.0281 µM (active) and the GI50 [5] was 0.356 µM (active). For the same compound, the GI50 [6] was 0.54 µM (active), the GI50 [7] was < 0.0486 µM (active) and the GI50 [8] was 0.173 µM (active). The GI50 [9] was 0.0783 µM (active), the GI50 [10] was 0.0673 µM (active) and the GI50 [11] was 0.316 µM (active). The GI50 [12] was 0.326 µM (active), the GI50 [13] was 0.372 µM (active) and the GI50 [14] was 0.413 µM (active). The GI50 [57] was 0.171 µM (active), the GI50 [15] was 0.135 µM (active) and the GI50 [16] was 0.357 µM (active). For the same compound, the GI50 [17] was 0.693 µM (active), the GI50 [18] was 0.14 µM and the GI50 [19] was 0.383 µM (active). For the same compound, the GI50 [58] was 0.0656 µM (active), the GI50 [20] was 0.176 µM (active) and the GI50 [21] was 0.0838 µM (active). For the same compound, the GI50 [22] was 0.0603 µM (active), the GI50 [23] was 1.27 µM (inactive) and the GI50 [24] was 0.0276 µM (active). For the same compound, the GI50 [25] was 0.156 µM (active), the GI50 [26] was 1.81 µM (inactive) and the GI50 [28] was 0.258 µM (active). For the same compound, the GI50 [29] was 0.157 µM (active), the GI50 [30] was 0.446 µM (active) and the GI50 [31] was 0.0649 µM (active). The GI50 [32] was < 0.0361 µM (active), the GI50 [33] was 0.0278 µM (active) and the GI50 [34] was 0.0594 µM (active). The GI50 [35] was 0.508 µM (active), the GI50 [36] was 0.199 µM (active) and the GI50 [37] was 0.187 µM (active). The GI50 [38] was 0.107 µM (active), the GI50 [39] was 0.218 µM (active) and the GI50 [40] was 0.0904 µM (active). For the same compound, the GI50 [41] was 0.139 µM (active), the GI50 [42] was 0.24 µM (active) and the GI50 [43] was 0.31 µM (active). For the same compound, the GI50 [44] was 0.226 µM (active), the GI50 [59] was 0.495 µM (active) and the GI50 [45] was 0.0262 µM (active). The GI50 [46] was 0.918 µM (active), the GI50 [47] was 0.107 µM (active) and the GI50 [48] was 0.0692 µM (active). The GI50 [49] was 0.207 µM (active), the GI50 [50] was 0.265 µM (active) and the GI50 [51] was 0.105 µM (active). The GI50 [52] was 0.0489 µM (active), the GI50 [53] was 0.578 µM (active) and the GI50 [54] was 0.728 µM (active).

For `Cc1ccccc1Nc1nc2ccccc2nc1NS(=O)(=O)c1ccccc1`, the GI50 [2] was > 100 µM (inactive), the GI50 [3] was > 100 µM (inactive) and the GI50 [55] was > 100 µM (inactive). The GI50 [56] was > 100 µM (inactive), the GI50 [5] was > 100 µM (inactive) and the GI50 [6] was > 100 µM (inactive). The GI50 [7] was > 100 µM (inactive), the GI50 [8] was > 100 µM (inactive) and the GI50 [9] was > 100 µM (inactive). For the same compound, the GI50 [10] was > 100 µM (inactive), the GI50 [11] was > 100 µM (inactive) and the GI50 [12] was > 100 µM (inactive). For the same compound, the GI50 [13] was 43.1 µM (inactive), the GI50 [14] was 96.8 µM (inactive) and the GI50 [57] was > 100 µM (inactive). The GI50 [15] was 62.2 µM (inactive), the GI50 [16] was 56.2 µM (inactive) and the GI50 [17] was > 100 µM (inactive). The GI50 [18] was greater than 100 µM, the GI50 [19] was > 100 µM (inactive) and the GI50 [58] was > 100 µM (inactive). For the same compound, the GI50 [20] was > 100 µM (inactive), the GI50 [21] was > 100 µM (inactive) and the GI50 [22] was > 100 µM (inactive). For the same compound, the GI50 [23] was > 100 µM (inactive), the GI50 [24] was > 100 µM (inactive) and the GI50 [25] was > 100 µM (inactive). The GI50 [26] was > 100 µM (inactive), the GI50 [27] was > 100 µM (inactive) and the GI50 [28] was 68.1 µM (inactive). For the same compound, the GI50 [29] was > 100 µM (inactive), the GI50 [30] was > 100 µM (inactive) and the GI50 [31] was 59.7 µM (inactive). For the same compound, the GI50 [32] was > 100 µM (inactive), the GI50 [33] was > 100 µM (inactive) and the GI50 [34] was > 100 µM (inactive). The GI50 [35] was > 100 µM (inactive), the GI50 [36] was > 100 µM (inactive) and the GI50 [37] was > 100 µM (inactive). For the same compound, the GI50 [38] was > 100 µM (inactive), the GI50 [39] was 47.5 µM (inactive) and the GI50 [40] was > 100 µM (inactive). The GI50 [41] was 67.9 µM (inactive), the GI50 [42] was > 100 µM (inactive) and the GI50 [43] was > 100 µM (inactive). For the same compound, the GI50 [44] was > 100 µM (inactive), the GI50 [59] was > 100 µM (inactive) and the GI50 [45] was > 100 µM (inactive). For the same compound, the GI50 [47] was > 100 µM (inactive), the GI50 [48] was > 100 µM (inactive) and the GI50 [49] was 38.5 µM (inactive). For the same compound, the GI50 [51] was 67.1 µM (inactive), the GI50 [52] was > 100 µM (inactive) and the GI50 [53] was > 100 µM (inactive). For the same compound, the GI50 [54] was > 100 µM (inactive).
